Experimental findings from publication PMC2244712, “One-Pot, Mix-and-Read Peptide-MHC Tetramers” (PLoS ONE, 2008) are described below.

Residues, ends and D or L forms follow the SMILES beside them. Bounds are passed on as bounds.

Assay [1] has as its target in vivo biotinylated HLA-A*0201-HAT-BSP heavy chain folded with ß2m (human). Briefly: ELISA. In general terms: ELISA stands for enzyme-linked immunosorbent assay.
The target of assay [2] is in vivo biotinylated HLA-B*4402-HATBSP heavy chain folded with ß2m (human). Briefly: ELISA.
A further assay concerns the target T1, HLA-A*0201 (Homo sapiens, UniProt P04439, D140Y/D185E/D98H/E176V/E277Q/G131W/G231S/I119V/I121R/I166T/I218V/L300P/L318F/N151K/N90K/P208A/P217A/Q86G/Q94H/R138H/R169H/T345S).
T1 construct: generated from synthetic codon optimized and truncated genes without the transmembrane region; BSP (BirA biotinylation substrate peptide, biotinylated in vivo or not) (C); made in house; host or cells: E. coli BL21 (DE3), pET28a+, co-transformed with a BirA vector
Nature of the assay: biochemical. Type of assay: binding.

Assay [3] deals with in vivo biotinylated HLA-B*0702-BSPHAT heavy chain folded with ß2m (human). Briefly: ELISA.

A word on the Kd: it is the constant that tells how readily two partners part at equilibrium. A lower Kd goes with a tighter complex.

EBV EBNA3b 657-666 peptide, sequence (P03203 whole entry, looked up): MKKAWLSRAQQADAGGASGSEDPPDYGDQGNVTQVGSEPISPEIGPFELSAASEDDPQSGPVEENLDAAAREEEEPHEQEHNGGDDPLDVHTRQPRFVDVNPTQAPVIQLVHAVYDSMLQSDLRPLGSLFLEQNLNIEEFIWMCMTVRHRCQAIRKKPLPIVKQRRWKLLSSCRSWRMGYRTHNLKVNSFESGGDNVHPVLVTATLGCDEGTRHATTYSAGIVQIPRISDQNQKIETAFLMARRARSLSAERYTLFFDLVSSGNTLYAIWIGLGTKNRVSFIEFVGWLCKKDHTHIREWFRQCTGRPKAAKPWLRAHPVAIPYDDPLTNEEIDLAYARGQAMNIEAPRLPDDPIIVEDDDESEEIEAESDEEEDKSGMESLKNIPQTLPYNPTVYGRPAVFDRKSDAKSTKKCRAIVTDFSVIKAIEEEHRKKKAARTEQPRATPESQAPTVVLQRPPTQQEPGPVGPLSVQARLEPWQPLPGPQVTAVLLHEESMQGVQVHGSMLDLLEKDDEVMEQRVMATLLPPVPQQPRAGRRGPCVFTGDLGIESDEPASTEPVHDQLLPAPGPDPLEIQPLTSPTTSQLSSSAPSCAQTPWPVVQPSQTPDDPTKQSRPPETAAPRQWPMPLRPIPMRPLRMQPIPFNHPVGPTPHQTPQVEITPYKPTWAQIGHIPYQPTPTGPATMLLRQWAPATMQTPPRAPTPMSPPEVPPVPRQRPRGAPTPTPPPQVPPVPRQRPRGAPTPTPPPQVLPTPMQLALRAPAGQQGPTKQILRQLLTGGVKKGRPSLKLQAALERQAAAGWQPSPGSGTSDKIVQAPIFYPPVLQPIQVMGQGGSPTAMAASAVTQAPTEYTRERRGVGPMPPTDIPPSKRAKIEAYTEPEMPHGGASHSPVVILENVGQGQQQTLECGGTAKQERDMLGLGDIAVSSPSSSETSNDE
CMV pp65 417-426 peptide, sequence (P06725 whole entry, looked up): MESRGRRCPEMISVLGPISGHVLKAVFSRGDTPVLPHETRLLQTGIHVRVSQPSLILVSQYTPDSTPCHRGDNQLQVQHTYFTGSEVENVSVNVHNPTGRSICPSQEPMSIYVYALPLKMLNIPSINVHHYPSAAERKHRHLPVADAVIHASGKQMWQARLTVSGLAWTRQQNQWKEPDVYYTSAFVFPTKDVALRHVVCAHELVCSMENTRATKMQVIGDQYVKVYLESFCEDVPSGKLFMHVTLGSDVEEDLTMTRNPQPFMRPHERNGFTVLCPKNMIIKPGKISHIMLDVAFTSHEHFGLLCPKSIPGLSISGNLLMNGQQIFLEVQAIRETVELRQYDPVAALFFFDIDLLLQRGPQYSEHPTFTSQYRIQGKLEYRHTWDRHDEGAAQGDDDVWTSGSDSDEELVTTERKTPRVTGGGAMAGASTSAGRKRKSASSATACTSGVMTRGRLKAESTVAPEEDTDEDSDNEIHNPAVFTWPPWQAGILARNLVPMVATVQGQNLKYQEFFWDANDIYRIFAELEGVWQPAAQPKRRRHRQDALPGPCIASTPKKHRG
CMV pp65 495-503 peptide, sequence (P06725 whole entry, looked up): as above

Consider “CMV pp65 495-503 peptide (from UniProt P06725 495-503)”, for which the % folding in assay [1] came to 95%.
In turn, “EBV EBNA3b 657-666 peptide (from UniProt P03203 657-666)” registered a % folding in assay [2] of 100%.
As for `CC[C@H](C)[C@H](NC(=O)[C@H](CC(N)=O)NC(=O)[C@@H](NC(=O)[C@H](C)NC(=O)[C@H](CO)NC(=O)[C@H](CC(=O)O)NC(=O)[C@H](CO)NC(=O)[C@H](CC(C)C)NC(=O)[C@@H](N)Cc1ccc(O)cc1)[C@@H](C)CC)C(=O)O` (H-YLSDSAINI-OH), the dissociation constant Kd at HLA-A*0201 was below 10 nM.
In turn, “CMV pp65 417-426 peptide (from UniProt P06725 417-426)” displayed a % folding in assay [3] of 100%.
As for `CC[C@H](C)[C@H](NC(=O)[C@H](CCCCN)NC(=O)[C@H](CCCCN)NC(=O)[C@H](CS)NC(=O)[C@H](C)NC(=O)[C@H](CC(=O)O)NC(=O)[C@H](CO)NC(=O)[C@H](CC(C)C)NC(=O)[C@H](C)N)C(=O)O` (H-ALSDACKKI-OH), the Kd on HLA-A*0201 is above 1000 nM.
Still for that read-out and setting: the same measure for `CC(C)C[C@H](NC(=O)[C@@H](N)Cc1ccc(O)cc1)C(=O)N[C@@H](CO)C(=O)N[C@H](C(=O)N[C@@H](CCC(=O)O)C(=O)N[C@@H](CCCNC(=N)N)C(=O)N[C@@H](CC(=O)O)C(=O)N[C@@H](Cc1c[nH]cn1)C(=O)N[C@H](C(=O)O)C(C)C)[C@@H](C)O` (H-YLSTERDHV-OH): 10 to 100 nM.
In turn, `CC(C)C[C@H](NC(=O)[C@@H](N)Cc1ccccc1)C(=O)N[C@@H](CCC(=O)O)C(=O)N[C@H](C(=O)N[C@@H](CC(=O)O)C(=O)N[C@@H](C)C(=O)NCC(=O)N[C@@H](CCCNC(=N)N)C(=O)N[C@H](C(=O)O)C(C)C)[C@@H](C)O` (H-FLETDAGRV-OH) displayed a Kd at HLA-A*0201 of 10 to 100 nM.
As to `CC[C@H](C)[C@H](NC(=O)[C@@H](NC(=O)[C@H](CC(=O)O)NC(=O)[C@H](Cc1ccc(O)cc1)NC(=O)[C@H](CC(=O)O)NC(=O)[C@H](CC(C)C)NC(=O)[C@@H](N)Cc1ccc(O)cc1)[C@@H](C)O)C(=O)N[C@@H](Cc1ccc(O)cc1)C(=O)N[C@H](C(=O)O)C(C)C` (H-YLDYDTIYV-OH), the dissociation constant (Kd) at HLA-A*0201 was below 10 nM.
